Data reported in patent US11911361B2, “Stable cannabinoid formulations” (priority 2014, dated 2024).

What was measured:
[1] = tested on: paclitaxel-induced mechanical sensitivity; experiment: Paclitaxel induced neuropathic pain study (Von Frey mechanical sensitivity); format: in vivo, mice
[2] = tested on: oxaliplatin-induced peripheral neuropathy; experiment: Oxaliplatin induced neuropathic pain study; format: in vivo; conditions: CBD 15 minutes prior to single oxaliplatin 6 mg/kg
Method: (§1) A study was designed to test the efficacy of CBD in preventing oxaliplatin- or vincristine-induced peripheral neuropathy. Two doses of CBD and vehicle were tested against each of these first line chemotherapeutic agents. Oxaliplatin was administered once at a dose of 6 mg/kg. CBD was administered 15 minutes prior to the single oxaliplatin injection. Vincristine was administered once daily for 7 days at a dose of 0.1 mg/kg. CBD was administered 15 minutes prior to each vincristine injection. For each treatment group the final sample size was 8 animals.

[3] = tested on: vincristine-induced peripheral neuropathy; experiment: Vincristine induced neuropathic pain study; format: in vivo; conditions: CBD 15 minutes prior to each vincristine 0.1 mg/kg injection
Method: as §1

[4] = tested on: minimal muscular or neurological impairment; experiment: Minimal motor impairment toxicity test (TOX), rats; format: in vivo; conditions: Anticonvulsant Screening
[5] = tested on: U251 cells; experiment: Orthotopic mouse model of glioblastoma multiforme, U251 cells; format: in vivo, female athymic nu/nu mice
Method: All mice were injected intraperitoneally.
Survival between groups was compared using a Kaplan-Meier analysis and long-rank Mantel-Cox test or The Gehan-Breslow-Wilcoxon test. P values <0.05 defined statistical significance.

[6] = Long-term safety study in pediatric patients with refractory epilepsy; conditions: human, in vivo, oral, 48 week
Description: This was a long-term, open-label, 48-week study for pediatric subjects aged 1 year to 17 years with refractory epilepsy.
The study included 5 subjects aged 1 to <2 years (infants); 9 subjects aged 2 to <12 years (children), with ≥3 subjects under the age of 6 years; 6 subjects aged 12 to ≤17 years (adolescents), with ≥3 subjects under the age of 16 years.

[7] = tested on: maximal electroshock-induced seizures; experiment: Maximal electroshock test (MES), rats; conditions: Anticonvulsant Screening
[8] = tested on: Metrazol-induced clonic seizure; experiment: Subcutaneous Metrazol (sc Met) seizure test; conditions: for Sc MET N/F (animals protected/tested): mice; for ED50: Mus musculus, sc
[9] = tested on: psychomotor seizure induced by 6 Hz stimulation; experiment: Minimal clonic seizure (6 Hz) psychomotor seizure test; conditions: intraperitoneal; for 6 HZ N/F (animals protected/tested): Anticonvulsant Screening, mice; for 6 Hz N/F (animals protected/tested) / 6 Hz N/F: CF1 mice; for ED50: Mus musculus, ip; for 6 Hz N/F: Time to Peak Effect (Table 54)
[10] = Minimal motor impairment (rotorod) toxicity test (TOX), mice; conditions: in vivo
[11] = tested on: U87 cells; experiment: Orthotopic mouse model of glioblastoma multiforme, U87 cells
[12] = dose 30, 1.0 h, ethanol:polyethoxylated castor oil:PBS
[13] = dose 30, 1.0 h, methylcellulose
[14] = dose 30, 2.0 h, ethanol:polyethoxylated castor oil:PBS
[15] = dose 30, 2.0 h, methylcellulose
[16] = dose 30, 4.0 h, ethanol:polyethoxylated castor oil:PBS
[17] = dose 30, 4.0 h, methylcellulose
[18] = dose 100, 1.0 h, ethanol:polyethoxylated castor oil:PBS
[19] = dose 100, 1.0 h, methylcellulose
[20] = dose 100, 2.0 h, ethanol:polyethoxylated castor oil:PBS
[21] = dose 100, 2.0 h, methylcellulose
[22] = dose 100, 4.0 h, ethanol:polyethoxylated castor oil:PBS
[23] = dose 100, 4.0 h, methylcellulose

C=C(C)[C@@H]1CCC(C)=C[C@H]1c1c(O)cc(CCCCC)cc1O [cannabidiol, (−)-trans-2-p-mentha-1,8-dien-3-yl-5-pentylresorcinol]
alleviating chemotherapy-induced neuropathic pain (in words) ([1]; Example 7, IP, Day 21): most effective level of alleviating chemotherapy-induced neuropathic pain | minimal effective dose ([1]; IP): 1.25 mg/kg | effect on paclitaxel-induced mechanical sensitivity (in words) ([1]; pretreatment 15 minutes prior to each paclitaxel injection, IP): significantly attenuated | effect on oxaliplatin-induced mechanical sensitivity (in words) [2]: attenuated | effect on vincristine-induced mechanical sensitivity (in words) [3]: no main effect of treatment | TOX N/F (minimal motor impairment) [4, 12]: 0/4 | TOX N/F (minimal motor impairment) [4, 13]: 0/4 | TOX N/F (minimal motor impairment) [4, 14]: 0/4 | TOX N/F (minimal motor impairment) [4, 15]: 0/4 | TOX N/F (minimal motor impairment) [4, 16]: 0/4 | TOX N/F (minimal motor impairment) [4, 17]: 0/4 | TOX N/F (minimal motor impairment) [4, 18]: 0/4 | TOX N/F (minimal motor impairment) [4, 19]: 0/4 | TOX N/F (minimal motor impairment) [4, 20]: 0/4 | TOX N/F (minimal motor impairment) [4, 21]: 0/4 | TOX N/F (minimal motor impairment) [4, 22]: 0/4 | TOX N/F (minimal motor impairment) [4, 23]: 0/4 | effect on antitumor activity of temozolomide (in words) ([5]; 15 mg/kg cannabidiol with temozolomide 1.5 mg/kg): enhanced the antitumor activity of temozolomide | survival (in words) ([5]; vehicle outlier included): did not increase survival | subjects with somnolence related to the CBD [6]: 7.7% | subjects with weight increase related to the CBD [6]: 7.7% | MES N/F (animals protected/tested) [7, 12]: 0/4 | MES N/F (animals protected/tested) [7, 13]: 0/4 | MES N/F (animals protected/tested) [7, 14]: 0/4 | MES N/F (animals protected/tested) [7, 15]: 0/4 | MES N/F (animals protected/tested) [7, 16]: 0/4 | MES N/F (animals protected/tested) [7, 17]: 0/4 | MES N/F (animals protected/tested) [7, 18]: 1/4 | MES N/F (animals protected/tested) [7, 19]: 0/4 | MES N/F (animals protected/tested) [7, 20]: 0/4 | MES N/F (animals protected/tested) [7, 21]: 0/4 | MES N/F (animals protected/tested) [7, 22]: 0/4 | MES N/F (animals protected/tested) [7, 23]: 0/4 | Sc MET N/F (animals protected/tested) ([8]; ED50 Biological Response (Table 57), 150 mg/kg, 2 h, methylcellulose): 1/8 | Sc MET N/F (animals protected/tested) ([8]; ED50 Biological Response (Table 57), 300 mg/kg, 2 h, methylcellulose): 5/8 | Sc MET N/F (animals protected/tested) ([8]; ED50 Biological Response (Table 57), 360 mg/kg, 2 h, methylcellulose): 7/8 | Sc MET N/F (animals protected/tested) ([8]; ED50 Biological Response (Table 59), 120 mg/kg, 2 h, ethanol:polyethoxylated castor oil:PBS): 0/8 | Sc MET N/F (animals protected/tested) ([8]; ED50 Biological Response (Table 59), 160 mg/kg, 2 h, ethanol:polyethoxylated castor oil:PBS): 2/8 | Sc MET N/F (animals protected/tested) ([8]; ED50 Biological Response (Table 59), 220 mg/kg, 2 h, ethanol:polyethoxylated castor oil:PBS): 5/8 | Sc MET N/F (animals protected/tested) ([8]; ED50 Biological Response (Table 59), 260 mg/kg, 2 h, ethanol:polyethoxylated castor oil:PBS): 7/8 | ED50 ([8]; 1:1:18 ethanol:polyethoxlated castor oil:PBS solvent): 199 mg/kg | ED50 ([8]; methylcellulose solvent): 241 mg/kg | Sc MET N/F (animals protected/tested) ([8]; Tables 57/58, 200 mg/kg, 2 h, methylcellulose): 3/8 | Sc MET N/F (animals protected/tested) ([8]; Time to Peak Effect (Table 58), 200 mg/kg, 0.25 h, methylcellulose): 0/4 | Sc MET N/F (animals protected/tested) ([8]; Time to Peak Effect (Table 58), 200 mg/kg, 0.5 h, methylcellulose): 0/4 | Sc MET N/F (animals protected/tested) ([8]; Time to Peak Effect (Table 58), 200 mg/kg, 1 h, methylcellulose): 2/8 | 6 HZ N/F (animals protected/tested) ([9]; 10 mg/kg, 0.5 h, ethanol:polyethoxylated castor oil:PBS): 0/4 | 6 HZ N/F (animals protected/tested) ([9]; 10 mg/kg, 0.5 h, methylcellulose): 0/4 | 6 HZ N/F (animals protected/tested) ([9]; 10 mg/kg, 1.0 h, ethanol:polyethoxylated castor oil:PBS): 0/4 | 6 HZ N/F (animals protected/tested) ([9]; 10 mg/kg, 1.0 h, methylcellulose): 0/4 | 6 HZ N/F (animals protected/tested) ([9]; 10 mg/kg, 2.0 h, ethanol:polyethoxylated castor oil:PBS): 0/4 | 6 HZ N/F (animals protected/tested) ([9]; 10 mg/kg, 2.0 h, methylcellulose): 0/4 | 6 HZ N/F (animals protected/tested) ([9]; 30 mg/kg, 0.5 h, ethanol:polyethoxylated castor oil:PBS): 0/4 | 6 HZ N/F (animals protected/tested) ([9]; 30 mg/kg, 0.5 h, methylcellulose): 0/4 | 6 HZ N/F (animals protected/tested) ([9]; 30 mg/kg, 1.0 h, ethanol:polyethoxylated castor oil:PBS): 0/4 | 6 HZ N/F (animals protected/tested) ([9]; 30 mg/kg, 1.0 h, methylcellulose): 0/4 | 6 HZ N/F (animals protected/tested) ([9]; 30 mg/kg, 2.0 h, ethanol:polyethoxylated castor oil:PBS): 0/4 | 6 HZ N/F (animals protected/tested) ([9]; 30 mg/kg, 2.0 h, methylcellulose): 0/4 | 6 HZ N/F (animals protected/tested) ([9]; 100 mg/kg, 0.5 h, ethanol:polyethoxylated castor oil:PBS): 2/4 | 6 HZ N/F (animals protected/tested) ([9]; 100 mg/kg, 0.5 h, methylcellulose): 1/4 | 6 HZ N/F (animals protected/tested) ([9]; 100 mg/kg, 1.0 h, ethanol:polyethoxylated castor oil:PBS): 0/4 | 6 HZ N/F (animals protected/tested) ([9]; 100 mg/kg, 1.0 h, methylcellulose): 0/4 | 6 HZ N/F (animals protected/tested) ([9]; 100 mg/kg, 2.0 h, ethanol:polyethoxylated castor oil:PBS): 0/4 | 6 HZ N/F (animals protected/tested) ([9]; 100 mg/kg, 2.0 h, methylcellulose): 0/4 | 6 Hz N/F (animals protected/tested) ([9]; ED50 Biological Response (Table 53), 30 mg/kg, 0.5 h, methylcellulose): 0/8 | 6 Hz N/F (animals protected/tested) ([9]; ED50 Biological Response (Table 53), 65 mg/kg, 0.5 h, methylcellulose): 5/8 | 6 Hz N/F (animals protected/tested) ([9]; ED50 Biological Response (Table 53), 130 mg/kg, 0.5 h, methylcellulose): 5/8 | 6 Hz N/F (animals protected/tested) ([9]; ED50 Biological Response (Table 53), 160 mg/kg, 0.5 h, methylcellulose): 8/16 | 6 Hz N/F (animals protected/tested) ([9]; ED50 Biological Response (Table 53), 190 mg/kg, 0.5 h, methylcellulose): 7/8 | 6 Hz N/F (animals protected/tested) ([9]; ED50 Biological Response (Table 55), 50 mg/kg, 0.5 h, ethanol:polyethoxylated castor oil:PBS): 1/8 | 6 Hz N/F (animals protected/tested) ([9]; ED50 Biological Response (Table 55), 100 mg/kg, 0.5 h, ethanol:polyethoxylated castor oil:PBS): 1/8 | 6 Hz N/F (animals protected/tested) ([9]; ED50 Biological Response (Table 55), 130 mg/kg, 0.5 h, ethanol:polyethoxylated castor oil:PBS): 4/8 | 6 Hz N/F (animals protected/tested) ([9]; ED50 Biological Response (Table 55), 170 mg/kg, 0.5 h, ethanol:polyethoxylated castor oil:PBS): 6/8 | 6 Hz N/F (animals protected/tested) ([9]; ED50 Biological Response (Table 55), 200 mg/kg, 0.5 h, ethanol:polyethoxylated castor oil:PBS): 8/8 | ED50 ([9]; 1:1:18 ethanol:polyethoxylated castor oil:PBS solvent): 122 mg/kg | ED50 ([9]; methylcellulose solvent): 104 mg/kg | 6 Hz N/F ([9]; 300 mg/kg, 0.25 h, methylcellulose): 1/8 | 6 Hz N/F ([9]; 300 mg/kg, 0.5 h, methylcellulose): 0/8 | 6 Hz N/F ([9]; 300 mg/kg, 1 h, methylcellulose): 0/8 | 6 Hz N/F ([9]; 300 mg/kg, 2 h, methylcellulose): 0/8 | 6 Hz N/F ([9]; 300 mg/kg, 4 h, methylcellulose): 0/8 | 6 Hz N/F ([9]; 300 mg/kg, 6 h, methylcellulose): 0/8 | 6 Hz N/F ([9]; 300 mg/kg, 24 h, methylcellulose): 0/8 | 6 Hz N/F ([9]; 500 mg/kg, 0.25 h, methylcellulose): 1/8 | 6 Hz N/F ([9]; 500 mg/kg, 0.5 h, methylcellulose): 0/8 | 6 Hz N/F ([9]; 500 mg/kg, 1 h, methylcellulose): 0/8 | 6 Hz N/F ([9]; 500 mg/kg, 2 h, methylcellulose): 0/8 | 6 Hz N/F ([9]; 500 mg/kg, 4 h, methylcellulose): 0/8 | 6 Hz N/F ([9]; 500 mg/kg, 6 h, methylcellulose): 0/8 | 6 Hz N/F ([9]; 500 mg/kg, 24 h, methylcellulose): 2/8 | TD50 at 2 h ([10]; CF1, mouse, TD50, Example 12, 1:1:18 ethanol:polyethoxylated castor oil:PBS solvent): 262 mg/kg | TD50 at 0.5 hours ([10]; CF1, mouse, TD50, Example 12, methylcellulose solvent, 0.5 hours post administration): > 500 mg/kg | TD50 at 2 h ([10]; mouse, TD50, Example 13, 1:1:18 ethanol:polyethoxlated castor oil:PBS solvent): 267 mg/kg | TD50 at 2 h ([10]; mouse, TD50, Example 13, methylcellulose solvent): > 500 mg/kg | glioblastoma multiforme progression (in words) ([11]; 15 mg/kg alone, intraperitoneal): did not inhibit glioblastoma multiforme progression | effect on antitumor activity of temozolomide (in words) ([11]; 15 mg/kg with temozolomide 2 mg/kg, intraperitoneal): enhanced the antitumor activity of suboptimal doses of temozolomide leading to a significant increase in survival | full regression of tumors ([11]; mouse, in vivo): 20%
